Source: paper PMC6508495, “Members of the abscisic acid co‐receptor PP2C protein family mediate salicylic acid–abscisic acid crosstalk” (Plant Direct, 2017)

Tests used:
PYL2 with ABI1 = biological target: T1, PYL2 with ABI1 (Arabidopsis thaliana, UniProt O80992); assay: SPR of ABI1 binding to immobilised PYL2, enhanced by ABA; details: indirect: ABA-enhanced receptor-PP2C interaction; HBS-EP buffer
T1 construct: His-SUMO-tagged PYL2 immobilised on CM5 chip; His6-ABI1 as analyte; both from E. coli; with Protein phosphatase 2C 56
T1 sequence (O80992 1-190): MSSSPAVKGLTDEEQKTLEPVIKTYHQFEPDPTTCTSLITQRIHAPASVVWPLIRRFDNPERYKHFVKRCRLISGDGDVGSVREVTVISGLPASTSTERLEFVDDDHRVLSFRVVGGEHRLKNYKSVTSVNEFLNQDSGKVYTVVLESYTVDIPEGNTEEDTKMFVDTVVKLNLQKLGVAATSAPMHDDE
T1 sequence (P49597 1-434 partner): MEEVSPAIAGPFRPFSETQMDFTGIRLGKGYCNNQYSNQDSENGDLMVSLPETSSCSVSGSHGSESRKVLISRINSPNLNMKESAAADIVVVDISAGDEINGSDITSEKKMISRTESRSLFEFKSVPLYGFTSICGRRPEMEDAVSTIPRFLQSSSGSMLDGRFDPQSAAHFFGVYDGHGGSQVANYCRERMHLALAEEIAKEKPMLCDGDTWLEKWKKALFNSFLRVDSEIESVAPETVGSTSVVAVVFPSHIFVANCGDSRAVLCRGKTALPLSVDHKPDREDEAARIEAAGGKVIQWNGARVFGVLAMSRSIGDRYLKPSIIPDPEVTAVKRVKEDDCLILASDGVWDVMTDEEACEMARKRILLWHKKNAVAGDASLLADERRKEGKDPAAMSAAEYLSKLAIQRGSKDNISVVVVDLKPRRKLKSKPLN

PYR1 with ABI1 = biological target: T2, PYR1 with ABI1 (Arabidopsis thaliana, UniProt O49686); assay: SPR of ABI1 binding to immobilised PYR1, enhanced by ABA; details: indirect: ABA-enhanced receptor-PP2C interaction; HBS-EP buffer
T2 construct: His-SUMO-tagged PYR1 immobilised on CM5 chip; His6-ABI1 as analyte; both from E. coli; with Protein phosphatase 2C 56
T2 sequence (O49686 1-191): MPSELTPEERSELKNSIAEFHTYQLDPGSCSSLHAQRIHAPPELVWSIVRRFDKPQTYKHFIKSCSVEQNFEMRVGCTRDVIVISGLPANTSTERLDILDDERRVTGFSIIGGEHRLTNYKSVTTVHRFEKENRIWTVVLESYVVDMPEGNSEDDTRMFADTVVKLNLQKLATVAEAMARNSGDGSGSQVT
T2 sequence (P49597 1-434 partner): T1 sequence (P49597 1-434 partner)

PYL1 with ABI1 = biological target: T3, PYL1 with ABI1 (Arabidopsis thaliana, UniProt Q8VZS8); assay: SPR of ABI1 binding to immobilised PYL1, enhanced by ABA; details: indirect: ABA-enhanced receptor-PP2C interaction; HBS-EP buffer
T3 construct: His6-SUMO-tagged PYL1 immobilised on CM5 chip; His6-ABI1 as analyte; both from E. coli; with Protein phosphatase 2C 56
T3 sequence (Q8VZS8 2-221): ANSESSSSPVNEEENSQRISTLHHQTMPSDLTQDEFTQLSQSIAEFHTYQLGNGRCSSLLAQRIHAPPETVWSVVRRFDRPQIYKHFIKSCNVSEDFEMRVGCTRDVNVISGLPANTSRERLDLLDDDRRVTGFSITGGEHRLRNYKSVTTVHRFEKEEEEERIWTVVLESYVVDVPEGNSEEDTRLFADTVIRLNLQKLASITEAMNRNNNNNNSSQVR
T3 sequence (P49597 1-434 partner): T1 sequence (P49597 1-434 partner)

ABI2 [1] = biological target: T4, ABI2 (Arabidopsis thaliana, UniProt O04719); assay: size-exclusion chromatography with [3H]SA; type: binding; details: 200 nM [3H]SA; 200 ng/ul protein; labelled compound
T4 construct: ORF from Arabidopsis cDNA library in pET28a, His6-tagged, E. coli Rosetta 2 (DE3), Ni-NTA and gel filtration
T4 sequence (O04719 1-423): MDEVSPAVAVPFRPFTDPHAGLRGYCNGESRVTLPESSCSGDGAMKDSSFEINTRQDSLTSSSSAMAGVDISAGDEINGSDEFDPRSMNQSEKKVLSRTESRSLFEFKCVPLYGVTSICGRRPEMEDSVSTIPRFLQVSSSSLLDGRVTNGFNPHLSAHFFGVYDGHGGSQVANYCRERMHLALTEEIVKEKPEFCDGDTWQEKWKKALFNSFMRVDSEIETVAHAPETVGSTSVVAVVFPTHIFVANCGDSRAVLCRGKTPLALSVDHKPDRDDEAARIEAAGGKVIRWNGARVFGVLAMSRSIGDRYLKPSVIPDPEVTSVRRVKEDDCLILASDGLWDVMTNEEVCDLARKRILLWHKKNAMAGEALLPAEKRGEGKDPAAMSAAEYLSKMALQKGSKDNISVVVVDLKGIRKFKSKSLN

ABI1 [2] = biological target: T5, ABI1 (Arabidopsis thaliana, UniProt P49597); assay: size-exclusion chromatography with [3H]SA; type: binding; details: 200 nM [3H]SA; 200 ng/ul protein; labelled compound
T5 construct: ORF from Arabidopsis cDNA library in pET28a, His6-tagged, E. coli Rosetta 2 (DE3), Ni-NTA and gel filtration
T5 sequence (P49597 1-434): T1 sequence (P49597 1-434 partner)

PP2C-D4 [3] = biological target: T6, PP2C-D4 (Arabidopsis thaliana, UniProt Q94CL8); assay: size-exclusion chromatography with [3H]SA; type: binding; details: 200 nM [3H]SA; 200 ng/ul protein; labelled compound
T6 construct: gene PP2C6; ORF from Arabidopsis cDNA library in pET42a (NdeI/XhoI), His6-tagged, E. coli Rosetta 2 (DE3), Ni-NTA and gel filtration
T6 sequence (Q94CL8 1-384): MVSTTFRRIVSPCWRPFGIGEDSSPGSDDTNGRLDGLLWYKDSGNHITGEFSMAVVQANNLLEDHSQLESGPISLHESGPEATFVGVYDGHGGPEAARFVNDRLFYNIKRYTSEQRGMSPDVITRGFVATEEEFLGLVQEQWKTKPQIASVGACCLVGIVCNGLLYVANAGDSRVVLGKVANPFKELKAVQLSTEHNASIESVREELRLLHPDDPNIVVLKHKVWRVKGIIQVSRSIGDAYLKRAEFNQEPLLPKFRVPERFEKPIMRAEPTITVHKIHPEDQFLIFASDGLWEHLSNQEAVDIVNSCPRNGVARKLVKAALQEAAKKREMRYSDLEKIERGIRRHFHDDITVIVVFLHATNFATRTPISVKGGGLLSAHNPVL

ABI1 [4] = biological target: T5, ABI1; assay: SPR, 3AESA immobilised on CM5 chip; type: binding; details: 3AESA amide-coupled to chip; 1 uM protein; competed by SA
ABI2 [5] = biological target: T4, ABI2; assay: SPR, 3AESA immobilised on CM5 chip; type: binding; details: 3AESA amide-coupled to chip; 1 uM protein; competed by SA
PP2C-D4 [6] = biological target: T6, PP2C-D4; assay: SPR, 3AESA immobilised on CM5 chip; type: binding; details: 3AESA amide-coupled to chip; 1 uM protein; competed by SA
ABI2 [7] = biological target: T4, ABI2; assay: photoaffinity crosslinking, anti-SA immunoblot; type: binding; details: 50 uM 4AzSA; 50 ng protein; photo-activated, covalent; competed by SA
ABI1 [8] = biological target: T5, ABI1; assay: photoaffinity crosslinking, anti-SA immunoblot; type: binding; details: 50 uM 4AzSA; 50 ng protein; photo-activated, covalent; competed by SA

In the case of `CC1=CC(=O)CC(C)(C)[C@@]1(O)/C=C/C(C)=C\C(=O)O` [ABA], the “SPR of ABI1 binding to immobilised PYL2, enhanced by ABA” value (PYL2 with ABI1) is reported as “dose‐dependent binding to the PP2Cs, which was further enhanced in the presence of ABA”, the “SPR of ABI1 binding to immobilised PYR1, enhanced by ABA” value (PYR1 with ABI1) is reported as “dose‐dependent binding to the PP2Cs, which was further enhanced in the presence of ABA” and the “SPR of ABI1 binding to immobilised PYL1, enhanced by ABA” value (PYL1 with ABI1) is reported as “this binding was enhanced several fold in the presence of ABA”.

`O=C(O)c1ccccc1O` [SA] was tested, and the “size-exclusion chromatography with [3H]SA” value (ABI2 [1]) was “ABI2's binding to [^3H]SA was comparable to that of PP2C‐D4”, the “size-exclusion chromatography with [3H]SA” value (ABI1 [2]) was “ABI1 exhibited relatively weak binding to [^3H]SA” and the “size-exclusion chromatography with [3H]SA” value (PP2C-D4 [3]) was “PP2C‐D4's ability to bind SA also was confirmed by size‐exclusion chromatography using [^3H]SA”.

For `NCCc1cccc(C(=O)O)c1O` [3AESA], the “SPR, 3AESA immobilised on CM5 chip” value (ABI1 [4]) was “recombinant ABI1 and ABI2 bound the 3AESA‐immobilized sensor chip and crosslinked with 4AzSA”, the “SPR, 3AESA immobilised on CM5 chip” value (ABI2 [5]) was “recombinant ABI1 and ABI2 bound the 3AESA‐immobilized sensor chip and crosslinked with 4AzSA” and the “SPR, 3AESA immobilised on CM5 chip” value (PP2C-D4 [6]) was “Binding to 3AESA was detected when purified PP2C‐D4 was passed over the sensor chip”.

With `[N-]=[N+]=Nc1ccc(C(=O)O)c(O)c1` [4AzSA] the “photoaffinity crosslinking, anti-SA immunoblot” value (ABI2 [7]) was “recombinant ABI1 and ABI2 bound the 3AESA‐immobilized sensor chip and crosslinked with 4AzSA” and the “photoaffinity crosslinking, anti-SA immunoblot” value (ABI1 [8]) was “recombinant ABI1 and ABI2 bound the 3AESA‐immobilized sensor chip and crosslinked with 4AzSA”.
